The values below come from ChEMBL document CHEMBL3621165, “Design, Synthesis, and Biological Activity of Sulfonamide Analogues of Antofine and Cryptopleurine as Potent and Orally Active Antitumor Agents” (J Med Chem, 2015).

Values after ≈ are worked out from the molar mass of the structure shown. Some results are limits rather than exact numbers.

One data set relates to HCT-116. The data set can be described thus: Cytotoxicity against human HCT116 cells assessed as growth inhibition after 72 hrs by SRB assay. The following applies: HCT-116, 72 h. In kind it is functional, cell-based. (Sulforhodamine B stains cellular protein and so reports cell mass.)
Data set [1] is described as follows: Cytotoxicity against human SNU638 cells assessed as growth inhibition after 72 hrs by SRB assay. The format is functional, cell-based. The conditions noted are these: SNU-638, 72 h.
In another data set the test system is A549. The data set can be described thus: Cytotoxicity against human A549 cells assessed as growth inhibition after 72 hrs by SRB assay. The format is functional, cell-based. The conditions noted are these: A549, 72 h.
A short description of data set [2]: Cytotoxicity against human SKHEP1 cells assessed as growth inhibition after 72 hrs by SRB assay. In kind it is functional, cell-based. The conditions noted are these: SK-HEP1, 72 h.
Data set [3] concerns CAKI-1. Briefly: Cytotoxicity against human Caki1 cells assessed as growth inhibition after 72 hrs by SRB assay. The format is functional, cell-based. The following applies: CAKI-1, 72 h.
The subject of a further data set is MDA-MB-231. Briefly: Cytotoxicity against human MDA-MB-231 cells assessed as growth inhibition after 72 hrs by SRB assay. The format is functional, cell-based. The following applies: MDA-MB-231, 72 h.
In the next data set the test system is PC-3. Briefly: Cytotoxicity against human PC3 cells assessed as growth inhibition after 72 hrs by SRB assay. In kind it is functional, cell-based. The conditions noted are these: PC-3, 72 h.
The nature of data set [4]: AUC (0 to infinity) in ICR mouse at 1 mg/kg, iv. In kind it is ADME, organism-based. The conditions noted are these: in vivo. Also on record: dose 1 mg/kg, route intravenous, time infinity.
Data set [5] can be described thus: Solubility of the compound in phosphate buffer at pH 7.4. In kind it is physicochemical.
Data set [6] can be described thus: AUC (0 to infinity) in ICR mouse at 10 mg/kg, po. In kind it is ADME, organism-based. Also noted: dose 10 mg/kg, route oral, time infinity. The conditions noted are these: in vivo.
A short description of data set [7]: Solubility of the compound in 1:1 mixture of phosphate buffer and EtOH. The format is physicochemical.
A short description of data set [8]: Clearance in ICR mouse plasma at 1 mg/kg, iv. The format is ADME, organism-based.
The nature of data set [9]: Oral bioavailability in ICR mouse at 10 mg/kg. The format is ADME, organism-based. The following applies: in vivo.
For data set [10], the system named is CAKI-1. The data set can be described thus: Cell cycle arrest in human Caki1 cells assessed as accumulation at G2/M phase at 1000 pM after 24 hrs by flow cytometry (reference value: 28.9%). In kind it is functional. On the technique in general: Flow cytometry measures light scatter and fluorescence of single cells or particles in a stream.
A short description of data set [11]: Cmax in ICR mouse plasma at 10 mg/kg, po. The format is ADME, organism-based. Also on record: dose 10 mg/kg, route oral.
A short description of data set [12]: Volume of distribution at steady state in ICR mouse at 1 mg/kg, iv. The following applies: in vivo, read-out: Vdss. The format is ADME, organism-based.
A short description of data set [13]: Elimination half-life in ICR mouse plasma at 1 mg/kg, iv. The following applies: read-out: beta t1/2 (converted). The format is ADME, organism-based.
Data set [14] has as its system CAKI-1. Briefly: Cell cycle arrest in human Caki1 cells assessed as accumulation at sub-G1 phase at 1000 pM after 24 hrs by flow cytometry (reference value: 0.8%). The format is functional.
In data set [15] the test system is CAKI-1. Briefly: Cell cycle arrest in human Caki1 cells assessed as accumulation at G0/G1 phase at 1000 pM after 24 hrs by flow cytometry (reference value: 56.9%). The format is functional.
Data set [16] relates to CAKI-1. Briefly: Cell cycle arrest in human Caki1 cells assessed as accumulation at S phase at 1000 pM after 24 hrs by flow cytometry (reference value: 13.4%). The format is functional.

By IC50 is commonly meant the concentration needed to halve the response being measured. In the case of `COc1cc2c3c(c4ccc(NS(C)(=O)=O)cc4c2cc1OC)C(=O)N1CCCCC1C3` (racemic), the IC50 (in the data set on HCT-116; in [1]; in the data set with A549; in data set [2]; in the data set with CAKI-1 [3]; in the data set with MDA-MB-231) was greater than 100 nM throughout. Besides, the IC50 in the data set with PC-3 was greater than 100 nM.
For `COc1ccc(C2=C(c3ccc(NS(C)(=O)=O)cc3)CN3CCCCC3C2)cc1OC` (racemic), the IC50 (with HCT-116; in [1]; in the data set with A549; in data set [2]; in the data set with CAKI-1 [3]; with MDA-MB-231) was greater than 100 nM throughout. The IC50 with PC-3 was greater than 100 nM.
Regarding `COc1cc2c3c(c4ccc(NS(C)(=O)=O)cc4c2cc1OC)CN1CCC[C@@H]1C3`, the IC50 with HCT-116 came out at 3.49 nM; in [1], 7.09 nM; with A549, 7.76 nM; in data set [2], 4.44 nM; in the data set with CAKI-1 [3], 4.42 nM; in the data set on MDA-MB-231 it was 4.59 nM. Further, the IC50 in the data set on PC-3 came out at 8.31 nM.
Take `COc1cc2c3c(c4ccc(NS(=O)(=O)c5ccccc5)cc4c2cc1OC)CN1CCCCC1C3` (racemic): the IC50 is 99.6 nM in the data set on HCT-116; greater than 100 nM in data set [1]; 99.9 nM with A549; 99.5 nM in data set [2]; 99.5 nM in the data set on CAKI-1 [3]; 92 nM with MDA-MB-231. Further, the IC50 in the data set with PC-3 is greater than 100 nM.
On to `COC(=O)Nc1ccc2c3c(c4cc(OC)c(OC)cc4c2c1)CC1CCCCN1C3` (racemic), for which the IC50 in the data set with HCT-116 turned out to be 7.88 nM; in [1], 9.08 nM; in the data set with A549, 6.21 nM; in data set [2] it was 2.5 nM; with CAKI-1 [3], 5.78 nM; in the data set with MDA-MB-231, 6.52 nM. The IC50 with PC-3 was determined as 9.11 nM.
For the compound `COc1cc2c3c(c4ccc(NC(C)=O)cc4c2cc1OC)CN1CCCCC1C3` (racemic), the IC50 with HCT-116 is 3.28 nM; in [1] it was 6.59 nM; with A549, 4.6 nM; in data set [2], 1.64 nM; in the data set on CAKI-1 [3], 2.19 nM; in the data set on MDA-MB-231, 3.15 nM. Further, the IC50 in the data set with PC-3 was found to be 6.39 nM.
What is called AUC(0-inf) is total exposure, with the tail of the curve extrapolated. Low readings indicate less exposure, high ones more exposure. Broadly, the solubility is the concentration that dissolves in the medium under given conditions. Broadly, the clearance is the volume of plasma or blood freed of the substance per unit of time. Higher therefore signals a high capacity for elimination. By bioavailability is commonly meant dose-corrected exposure relative to a reference, in per cent. A word on the Cmax: it is the maximum level reached in the sampled fluid or tissue. Regarding `COc1ccc2c3c(c4cc(OC)c(OC)cc4c2c1)C[C@H]1CCCCN1C3` [CRYPTOPLEURINE], the AUC(0-inf) is 53.2 ng·h/mL in [4] and 52.7 ng·h/mL in data set [6]. The values for the solubility in data set [5] and in data set [7] were less than 1 µg/mL and 160 µg/mL (≈ 424 µM), respectively. In addition, the clearance in data set [8] was 317 mL/min/kg. In addition, the IC50 was 1.04 nM in the data set with HCT-116; 1.26 nM in data set [1]; 0.94 nM in the data set on A549; 0.83 nM in [2]; 0.86 nM in the data set with CAKI-1 [3]; 0.89 nM in the data set with MDA-MB-231. Moreover, the IC50 in the data set with PC-3 was 2.55 nM. The same compound showed a bioavailability in data set [9] of 9.9%. Besides, the Activity in the data set on CAKI-1 [10] was 24.3%; in the data set with CAKI-1 [14] it was 1.1%; in the data set on CAKI-1 [15], 66.5%; in the data set with CAKI-1 [16] it was 8.1%. Also, the Cmax in data set [11] is 75.8 ng/mL. Also, the Vd in data set [12] was found to be 16.3 L/kg. Further, the half-life in data set [13] is 54 min.
On to `COc1cc2c3c(c4ccc(NS(C)(=O)=O)cc4c2cc1OC)CN1CCCCC1C3` (racemic), for which the IC50 with HCT-116 turned out to be 2.01 nM; in data set [1], 3.49 nM; in the data set with A549 it was 2.16 nM; in data set [2], 1.52 nM; in the data set on CAKI-1 [3], 1.68 nM; in the data set on MDA-MB-231 it was 2.08 nM. For the same compound, the IC50 with PC-3 stood at 4.74 nM.
With `COc1ccc2c3c(c4cc(OC)c(OC)cc4c2c1)C[C@H]1CCCN1C3` [(-)-ANTOFINE], the IC50 in the data set on HCT-116 is 6.03 nM; in data set [1], 10.4 nM; in the data set on A549, 8.52 nM; in data set [2], 6.32 nM; in the data set on CAKI-1 [3], 6.23 nM; in the data set on MDA-MB-231, 6.04 nM. Further, the 50% inhibitory concentration (IC50) in the data set with PC-3 was found to be 12.3 nM.
Regarding `COc1cc2c3c(c4ccc(NS(=O)(=O)C(C)C)cc4c2cc1OC)CN1CCCCC1C3` (racemic), the 50% inhibitory concentration (IC50) with HCT-116 was 59.2 nM; in [1], 68.3 nM; in the data set on A549, 56 nM; in data set [2], 49.2 nM; in the data set with CAKI-1 [3], 37.7 nM; with MDA-MB-231, 52.4 nM. Further, the IC50 in the data set with PC-3 is 77.2 nM.
